In ChEMBL document CHEMBL4411294, “Synthesis and biological evaluation of cyanoaziridine phosphine oxides and phosphonates with antiproliferative activity” (Eur J Med Chem, 2019):

What was measured:
[1] = tested on: A549; test: Cytotoxicity against human A549 cells assessed as reduction in cell viability after 48 hrs by CCK8 assay; type: functional, cell-based; settings: A549, 48 h
[2] = tested on: HEK293; test: Cytotoxicity against human HEK293 cells assessed as reduction in cell viability after 48 hrs by CCK8 assay; type: cell-based; settings: HEK293, 48 h
[3] = tested on: MRC5; test: Cytotoxicity against human MRC5 cells assessed as reduction in cell viability after 48 hrs by CCK8 assay; type: cell-based; settings: MRC5, 48 h

Row | Structure (SMILES) | IC50 [1] [µM] | IC50 [2] [µM] | IC50 [3] [µM]
1 | Cc1ccc(S(=O)(=O)N2[C@@H](P(=O)(c3ccccc3)c3ccccc3)[C@]2(C)C#N)cc1 (relative stereo) | 3.1 | > 50 | > 50
2 | CC[C@@]1(C#N)N[C@H]1P(=O)(c1ccccc1)c1ccccc1 (relative stereo) | 3.3 | > 50 | > 50
3 | C[C@]1(C#N)[C@H](P(=O)(c2ccccc2)c2ccccc2)N1C(=O)OCc1ccccc1 (relative stereo) | 8.1 | 30.1 | > 50
4 | CCOP(=O)(OCC)[C@@H]1N(S(=O)(=O)c2ccc(C)cc2)[C@]1(C#N)CC (relative stereo) | 4.9 | > 50 | > 50
5 | CCOP(=O)(OCC)[C@@H]1N(S(=O)(=O)c2ccc(C)cc2)[C@@]1(C)C#N (relative stereo) | – | > 50 | > 50
6 | C[C@@]1(C#N)N[C@H]1P(=O)(c1ccccc1)c1ccccc1 (relative stereo) | 2 | > 50 | > 50
7 | Cc1ccc(S(=O)(=O)N2[C@@H](P(=O)(OC(C)C)OC(C)C)[C@]2(C)C#N)cc1 (relative stereo) | 3.4 | > 50 | > 50
8 | C[C@@]1(C#N)N[C@H]1P(=O)(O)O (relative stereo) | 8.5 | > 50 | > 50
9 | COc1cccc2c1C(=O)c1c(O)c3c(c(O)c1C2=O)C[C@@](O)(C(=O)CO)C[C@@H]3O[C@H]1C[C@H](N)[C@H](O)[C@H](C)O1 [DOXORUBICIN] | – | – | > 50
10 | CC[C@]1(C#N)[C@H](P(=O)(c2ccccc2)c2ccccc2)N1S(=O)(=O)c1ccc(C)cc1 (relative stereo) | 2.3 | 43.2 | > 50
